Structures can show the parent of a compound that is named as a salt.
What was measured:
[1] = test system: PC-3 human prostate cancer cells; assay: In vitro chemoradiosensitization, cell colony count; type: cell-based; conditions: for radiosensitivity of the cancer cell after prior exposure: 5 nM, 2 h exposure before X-rays; for Survival (%): Radiation + compound at 5 nM, 2 h drug exposure
Description: (§1) Chemoradiosensitizing effects of compound 13, compound 10, and compound 20 on human cancer cells were evaluated at a dose of 5 nM. PC-3 human prostate cancer cells were plated on petri dishes in triplicates were allowed to attach. After irradiation, cells were rinsed with HBSS (Hank's balanced salt solution), and covered with fresh media. Cells were cultured for 8-9 days in a 37° C. incubator. The resulting cell colonies were stained and counted. […] Other compounds of this invention can similarly be evaluated in accordance with this method.

[2] = test system: DMS-14 small lung cancer cells; assay: as above; type: cell-based, human; conditions: for Survival (%): Radiation + compound at 5 nM, 2 h drug exposure
Description: as §1, with “13” for “13, compound 10, and compound 20”, “DMS-14 small lung” for “PC-3 human prostate”

[3] = test system: PC-3 human prostate cancer cells; assay: Chemotherapeutic activity, cell colony count after 24 hr drug exposure; type: cell-based; conditions: 24 hr exposure
Description: (§2) Chemotherapeutic effects of compound 13 on human prostate cancer cells (PC-3 and DU-145) were evaluated at dose concentrations between 0 and 10 nM. Cells plated on Petri dishes in triplicates were allowed to attach, then cells were subjected to 24 hr drug exposure at 37° C. The cells were then rinsed with HBSS ((Hank's balanced salt solution) and covered with fresh media. Cells were cultured for 8-9 days in a 37° C. incubator. The resulting cell colonies were stained and counted. Results are presented in Table 4.

[4] = test system: DU-145 human prostate cancer cells; assay: as above; type: cell-based; conditions: 24 hr exposure
Description: as §2

[5] = test system: PC-3: human prostate cancer cell line; type: cell-based; conditions: for IC50: Homo sapiens, 72 h, read-out: IC50 (nM) PC-3
[6] = Acute toxicity, MTD40 (maximum tolerated dose at day 40); type: in vivo, C3H/HeN mice; conditions: i.p. injection, mice checked daily for 45 days; values only in FIG. 3
Description: Drugs were dissolved in cremophor:alcohol (1:1) and diluted in saline to a 5% cremophor, 5% alcohol, 90% saline for i.p. injection.
Acute toxicities of a compound of this invention, compound 13, topotecan, CPT and cisplatin were evaluated on C3H/HeN mice (female, 6-8 week old, body weight 18-20 g). The MTD40 (maximum tolerated dose at day 40) values were determined. In the consecutive type studies, 6 mice were dosed at moderate doses of 10, 70, or 106.98, or 141.47, or 187.1 mg/kg. If no severe and irreversible toxicity (euthanasia is required) occurred at these doses, additional 6 animals were initiated at a dose which is 1.3225-1.5283 times higher than the previous non-toxic doses. Sequential dosages (261.94, or 366.72, or 500 mg/kg) were increased until severe and irreversible toxicity (whereby euthanasia is required) occurs. […] The result of this exercise was two dosages, one apparently nonlethal and the other lethal if severe and irreversible toxicity occurred and euthanasia was required. Six mice were dosed at each dosage. If no severe and irreversible toxicity occurred at the lower dosage and at least one with severe and irreversible toxicity at the higher dose, then the lower dose was considered to the MTD. […] Drug toxicity was evaluated on mice, checked daily for 45 days. […] Other compounds of this invention can similarly be evaluated in accordance with this method.

[7] = test system: MTG-B mouse mammary adenocarcinoma tumors; assay: In vivo chemoradiosensitization in tumor-bearing mice; design: species or system C3H/HeN mice; conditions: single i.p. injection at MTD
Description: To determine whether the pronounced effects of compound 13 in tissue culture could be duplicated in solid tumors, in vivo chemoradiosensitization studies were performed on C3H/HeN mice bearing MTG-B mouse mammary adenocarcinoma tumors. Prior to treatment, the tumor grew exponentially following implantation into the flanks of the mice and reached a diameter of 8 mm (268.08 cu. mm) by day 7 to 10. The mice were injected i.p. with compound 13 at MTD using a single injection and then irradiated with a radiation dose of 22 Gy 24 h after the injection. Control groups of mice bearing 8 mm diameter tumors were treated with vehicle alone, or radiation alone, or drug alone. After treatment, tumor sizes were measured by caliper every day. Daily measurement of the tumor diameters (d1, d2) in two orthogonal directions were used to calculate the tumor volume (tumor volume=π/6{(d1+d2)/2}^3) using the approximation that the tumors were spherical (results shown in FIG. 1). The values of time (days) required to grow the tumor to twice their initial size after various treatments were calculated as tumor doubling time (TDT) (±SE) for evaluating the treatment effects. Survival times and curative effects after treatment were also be observed and recorded. Other compounds of this invention can similarly be evaluated in accordance with this method.

[8] = compound plus radiation, 22 Gy 24 h after the injection

CC[C@@]1(OC(=O)[C@@H](C)ON=C2c3cc([N+](=O)[O-])cc([N+](=O)[O-])c3-c3c2cc([N+](=O)[O-])cc3[N+](=O)[O-])C(=O)OCc2c1cc1n(c2=O)Cc2cc3c(CN(C)C)c(O)ccc3nc2-1 (as salt: hydrochloride) [Compound 10]
melting point: 210 to 213 °C (dec.)

CC[C@@]1(OC(=O)CON=C2c3cc([N+](=O)[O-])cc([N+](=O)[O-])c3-c3c2cc([N+](=O)[O-])cc3[N+](=O)[O-])C(=O)OCc2c1cc1n(c2=O)Cc2cc3c(CN(C)C)c(O)ccc3nc2-1 (as salt: hydrochloride) [Compound 16]
melting point: 210 to 215 °C (dec.)

CC[C@@]1(OC(=O)[C@@H](C)ON=C2c3cc([N+](=O)[O-])cc([N+](=O)[O-])c3-c3c2cc([N+](=O)[O-])cc3[N+](=O)[O-])C(=O)OCc2c1cc1n(c2=O)Cc2cc3c(CN(C)C)c(O)ccc3nc2-1 [Compound 10]
radiosensitivity of the cancer cell after prior exposure [1]: significantly increased the radiosensitivity
Survival (%) ([1]; X-rays 0 Gy): 100%
Survival (%) ([1]; X-rays 1 Gy): 90%
Survival (%) ([1]; X-rays 2 Gy): 66%
Survival (%) ([1]; X-rays 4 Gy): 21%

CC[C@@]1(OC(=O)[C@@H](C)ON=C2c3cc([N+](=O)[O-])cc([N+](=O)[O-])c3-c3c2cc([N+](=O)[O-])cc3[N+](=O)[O-])C(=O)OCc2c1cc1n(c2=O)Cc2cc3ccccc3nc2-1 [Compound 13]
radiosensitivity of the cancer cell after prior exposure ([2]; 5 nM, 2 h exposure before X-rays): significantly increased the radiosensitivity
Survival (%) ([2]; X-rays 0 Gy): 100%
Survival (%) ([2]; X-rays 2 Gy): 44%
Survival (%) ([2]; X-rays 4 Gy): 23%
Survival (%) ([2]; X-rays 8 Gy): 3%
PC-3 Cells % Survival ([3]; drug conc. 1 nM): 98%
PC-3 Cells % Survival ([3]; drug conc. 5 nM): 52%
PC-3 Cells % Survival ([3]; drug conc. 10 nM): 10%
DU-145 Cells % Survival ([4]; drug conc. 1 nM): 82%
DU-145 Cells % Survival ([4]; drug conc. 5 nM): 43%
DU-145 Cells % Survival ([4]; drug conc. 10 nM): 5%
IC50 [5]: 5 nM
radiosensitivity of the cancer cell after prior exposure [1]: significantly increased the radiosensitivity
Survival (%) ([1]; X-rays 0 Gy): 100%
Survival (%) ([1]; X-rays 1 Gy): 83%
Survival (%) ([1]; X-rays 2 Gy): 60%
Survival (%) ([1]; X-rays 4 Gy): 22%
toxicity compared with camptothecin and topotecan [6]: Decreased Toxicity
Survival ([7]; compound alone): 24 days
TDT (days), tumor doubling time ([7]; compound alone): 12 days
Survival [7, 8]: 90 days
TDT (days), tumor doubling time [7, 8]: 33 days

CC[C@@]1(OC(=O)[C@H](C)ON=C2c3cc([N+](=O)[O-])cc([N+](=O)[O-])c3-c3c2cc([N+](=O)[O-])cc3[N+](=O)[O-])C(=O)OCc2c1cc1n(c2=O)Cc2cc3ccccc3nc2-1 [Compound 17]
IC50 [5]: 6 nM

CC[C@@]1(OC(=O)[C@@H](C)ON=C2c3cc([N+](=O)[O-])cc([N+](=O)[O-])c3-c3c2cc([N+](=O)[O-])cc3[N+](=O)[O-])C(=O)OCc2c1cc1n(c2=O)Cc2cc3cc(O)ccc3nc2-1 [Compound 20]
IC50 [5]: 6 nM
melting point: 210 to 215 °C (dec.)
radiosensitivity of the cancer cell after prior exposure [1]: significantly increased the radiosensitivity
Survival (%) ([1]; X-rays 0 Gy): 100%
Survival (%) ([1]; X-rays 1 Gy): 82%
Survival (%) ([1]; X-rays 2 Gy): 65%
Survival (%) ([1]; X-rays 4 Gy): 22%

CC[C@@]1(O)C(=O)OCc2c1cc1n(c2=O)Cc2cc3c(CN(C)C)c(O)ccc3nc2-1 [Topotecan, (20S)-9-dimethylaminomethyl-10-hydroxy CPT, reference compound]
IC50 (nM) PC-3 ([5]; 72 hours drug incubation, 50% inhibition of colony formation): no effect

— patent publication US7875602B2 (priority 2005, dated 2011)
